The target of assay [1] is T1, DNA topoisomerase 1 (Homo sapiens) (UniProt P11387).
T1 sequence (whole entry): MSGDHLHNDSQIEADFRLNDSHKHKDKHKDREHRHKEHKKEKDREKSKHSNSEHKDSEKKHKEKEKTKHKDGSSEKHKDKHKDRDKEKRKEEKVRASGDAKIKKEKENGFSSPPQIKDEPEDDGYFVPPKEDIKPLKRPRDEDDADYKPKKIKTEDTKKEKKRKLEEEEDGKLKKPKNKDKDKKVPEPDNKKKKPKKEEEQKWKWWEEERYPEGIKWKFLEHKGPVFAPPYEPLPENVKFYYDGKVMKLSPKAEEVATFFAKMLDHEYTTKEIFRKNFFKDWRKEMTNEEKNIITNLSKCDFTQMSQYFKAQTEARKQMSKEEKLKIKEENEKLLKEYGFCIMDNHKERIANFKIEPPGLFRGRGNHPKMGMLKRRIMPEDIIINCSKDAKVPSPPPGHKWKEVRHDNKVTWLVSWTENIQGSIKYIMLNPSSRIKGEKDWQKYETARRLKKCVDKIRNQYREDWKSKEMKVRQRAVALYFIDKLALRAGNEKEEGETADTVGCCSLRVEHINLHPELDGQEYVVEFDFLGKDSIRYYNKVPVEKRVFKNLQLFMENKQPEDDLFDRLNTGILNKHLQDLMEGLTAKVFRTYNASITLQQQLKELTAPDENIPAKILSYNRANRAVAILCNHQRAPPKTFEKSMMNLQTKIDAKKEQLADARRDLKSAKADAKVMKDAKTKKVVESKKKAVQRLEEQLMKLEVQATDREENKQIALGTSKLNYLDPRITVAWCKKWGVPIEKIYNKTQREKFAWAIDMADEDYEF
Kind of assay: Inhibition of human topoisomerase 1.

Assay [2] has as its system SK-OV-3. As to the kind of experiment: Cytotoxicity against human SKOV3 cells after 48 hrs by SRB assay. In kind it is functional, cell-based. The note with it: SK-OV-3, 48 h.

The source made the active and inactive calls. The calls are words filed in the database; no cut-off is given here.

As to `CCCCCC1=C/C(=C/c2[nH]c(-c3ccc(Cc4ccc(O)cc4)[nH]3)cc2OC)N=C1C`, the inhibition entry in assay [1] is “Active”. For the same compound, inhibition in assay [2] was half-maximal at 1.3 µM (IC50).
For the compound `CCCCCC1=C/C(=C/c2[nH]c(-c3ccc[nH]3)cc2OC)N=C1C` [PRODIGIOSIN], the inhibition entry in assay [1] was “Active”. Besides, in assay [2], inhibition was half-maximal at 1.3 µM (IC50).

For the origin of these results see ChEMBL document CHEMBL1154146, “A 2-substituted prodiginine, 2-(p-hydroxybenzyl)prodigiosin, from Pseudoalteromonas rubra” (J Nat Prod, 2008).
